Patent publication US20110218229A1, “SIRT1 Modulation of Adipogenesis and Adipose Function” (priority 2003, published 2011)

How the values were obtained:
3T3-L1 adipocytes [1] = experiment: Free fatty acid (FFA) release in fully differentiated 3T3-L1 cells; type: cell-based, mouse
Protocol: (§1) We fully differentiated 3T3-L1 cells and subsequently (12 days after induction) applied the Sirt1 activator resveratrol over a wide range of concentrations. […] To validate further these visual results, we measured triglyceride content and free fatty acid (FFA) release in these cells.
Wild-type FVB male age-matched (12-16 weeks old) mice were used for the present studies. Sirt1+/+ and Sirt1+/− genotypes have been described previously 21. All mice were housed under controlled temperature (25±1° C.) and lighting conditions. Food provided was normal chow. All mice were cared for in accordance with the MIT animal care committee. Blood was collected from the retro-orbital sinus and kept on ice until centrifugation (1,500 g, 15 min at 4° C.), and the plasma was stored at −20° C. until analysis. All animals were killed by decapitation. WAT depots were collected, weighed and quickly frozen in liquid nitrogen and stored at −70° C. until further processing by immunoblotting. Non-esterified free fatty acids were determined by enzymatic assays (Wako Pure Chemical Industries).

[2] = system: primary rat white adipocytes; experiment: FFA release triggered by adrenalin in primary white adipocytes; type: cell-based; settings: with adrenalin
From the text: To determine whether Sirt1 stimulates fat mobilization in bona fide adipocytes, we cultured primary rat white adipocytes and activated fat mobilization with the known β-adrenergic inducer adrenalin. […] In a converse experiment using these rat adipocytes, we addressed whether inhibition of Sirt1 would blunt the mobilization of fat by adrenalin. Addition of the known Sirt1 inhibitor nicotinamide 16 indeed reduced the release of FFA triggered by adrenalin. The above findings indicate that Sirt1 not only represses the differentiation program of adipocytes, but also activates the mobilization of fat in fully differentiated cells.
Cell culture, retroviral infection and transfection. 3T3-L1, HEK293, 293T and Phoenix cells (ATCC, Rockville, Md.) were cultured in Dulbecco's modified Eagle's medium with 10% FCS, and antibiotics. Primary adipocytes from Sprague-Dawley rats were prepared as described previously 25. Transfections for luciferase assays were done as described using pSPORT6-PPAR-γ2, pGL3-PPRE26 and pcDNA3-Sirt1. Data were corrected for transfection efficiency.

UCP1 = UCP1 expression in BAT cells; type: cell-based
From the text: Further observations were made. A mouse genetically deficient for SIRT1 activity cannot regulate body temperature in the cold. The mouse appears unable to induce the UCP1 gene or related transcriptional programs. We used chromatin immunoprecipitations to characterize genes which may include regulatory sequences that are directly or indirectly bound by SIRT1. We discovered that, at least in brown fat cells, the UCP1 promoter is bound by SIRT1. SIRT1 responds to stress and activates UCP1 transcription. At least in part, the transcriptional activation is a result of the PGC1 co-factor, which is present in BAT cells, but absent in WAT cells, PGC1 modifies SIRT1 from a repressor to an activator. PGC1, SIRT1, and PPARγ are able to form a ternary complex which functions as a transcriptional activator. SIRT1 may have a similar function in other cells that express PGC1, e.g., muscle and liver cells. Moreover, resveratrol increases UCP1 expression in BAT cells.

3T3-L1 adipocytes [3] = experiment: Fat content by staining in fully differentiated 3T3-L1 cells; type: cell-based, mouse
Protocol: as §1
(§2) To stimulate adipogenesis and accumulation of lipids in cells, medium was supplemented to confluent cells (day 0) with 2 μM insulin or 10^−7M rosiglitazone (Alexis Biochemicals), as stated in the text, 1 μM dexamethasone, and 0.25 mM isobuthylmethylxanthine (IBMX) for 2 days. The cells were then incubated with insulin or 10^-7 M rosiglitazone, changing the medium every second day. Fat accumulation was visualized by staining of lipids with Oil red O. Intracellular triglyceride levels were measured in cell lysates by an enzymatic method using a reagent kit from Boehringer Mannheim.

3T3-L1 adipocytes [4] = experiment: Triglyceride content in fully differentiated 3T3-L1 cells; type: cell-based, mouse; settings: control cells
Protocol: as §1, §2

3T3-L1 fibroblasts [5] = experiment: 3T3-L1 adipogenesis / differentiation (Oil Red O staining); type: cell-based, mouse
Protocol: The 3T3-L1 mouse fibroblasts used in this example, and in Examples 4-10 hereinafter, were prepared in accordance with standard protocol as follows. 3T3-L1 cells (ATCC CL-173, Rockville, Md.) were grown to confluence (day 0) in medium A (Dulbecco's modified Eagle's Medium with 10% fetal calf serum, 100 units/ml penicillin, and 100 μg/ml streptomycin). Confluent cell were incubated in medium A containing 2 μM insulin, 1 μM dexamethasone, and 0.25 mM isobuthyl methyl xanthine for two days. Thereafter, confluent fibroblasts were treated with insulin for five days and at the end of such treatment were in a condition for functional study. Adipogenesis was evaluated by analysis of the expression of adipocyte-specific markers and by staining of lipids with Oil Red O (Chawla & Lazar, 1994, Proc. Natl. Acad. Sci. USA 91, 1786-1790).
(§3) 3T3-L1 fibroblasts were transformed through standard techniques with either a pBABE control vector (“control fibroblasts”) or a vector comprising pBABE-mSIRT1 cDNA (“mSIRT1 cDNA fibroblasts”). Western Blot analyses of SIRT1 expression by the control and mSIRT1 cDNA fibroblasts were performed using antibodies and actin control as in Example 1.
(§4) 3T3-L1 fibroblasts were transformed with either a pSUPER control vector (“control fibroblasts”), a vector comprising pSUPER-mSIRT1 RNAi WT (SEQ ID NO: 24) (“mSIRT1 RNAi WT fibroblasts”), or pSUPER-mSIRT1 RNAiMUT (SEQ ID NO: 25), (“mSIRT1 RNAiMUT fibroblasts”). Western Blot analyses of SIRT1 expression by the control, mSIRT1 RNAi WT, and mSIRT1 RNAiMUT fibroblasts were performed using antibodies and actin controls as in Example 1.
To stimulate adipogenesis and accumulation of lipids in cells, medium was supplemented to confluent cells (day 0) with 2 μM insulin or 10^−7M rosiglitazone (Alexis Biochemicals), as stated in the text, 1 μM dexamethasone, and 0.25 mM isobuthylmethylxanthine (IBMX) for 2 days. […] Fat accumulation was visualized by staining of lipids with Oil red O. Intracellular triglyceride levels were measured in cell lysates by an enzymatic method using a reagent kit from Boehringer Mannheim.

3T3-L1 fibroblasts [6] = experiment: Isoproterenol-induced lipolysis in 3T3-L1 (fatty acid concentration); type: cell-based, mouse; settings: day 7, isoproterenol (10^−5M), four hours; controls 0.627 mM (pBABE) and 0.508 mM (pSUPER)
Protocol: The amount of fat generated by adipocyte lipolysis should be proportional to the fat content of the adipocyte. In the experiment of this example, four samples of 3T3-L1 fibroblasts were prepared essentially as in Example 3 (except for the change in protocol noted below), and transformed as in Examples 4 and 5 with either pBABE control vector (“pBABE control fibroblasts”), pBABE-mSIRT1 cDNA (“mSIRT1 cDNA fibroblasts”), pSUPER control vector (“pSUPER control fibroblasts”), or pSUPER-mSIRT1 RNAi WT (SEQ ID NO: 24) (“mSIRT1 RNAi WT fibroblasts”).
Fatty acid concentrations in each of the four samples were measured four hours later and the results of these measurements are shown in FIG. 1. Six wells were used for each of the four samples. Results from the different wells were averaged.

SIRT1 = SIRT1 expression in transformed 3T3-L1 fibroblasts (Western Blot); type: cell-based, mouse; settings: for SIRT1 expression level versus control fibroblasts: Western Blot, actin control
Protocol: Samples of inguinal, epididymal, and retroperitoneal WAT were taken from the mice and subjected to Western Blot analyses using actin as a control to determine if SIRT1 was expressed in each of the three samples. Protein samples were prepared from WAT adipocytes by lysis in RIPA buffer supplemented with protease inhibitors. Twenty micrograms of protein were resolved in 9% SDS-PAGE and transferred to nitrocellulose membranes. SIRT1 protein was probed with mSIRT1 antibody (Upstate Inc.) and detected by ECL (Amersham). An actin antibody (Santa Cruz) was used in the Western Blot as a control. Pronounced SIRT1 expression levels were detected in each of the three WAT samples.
as §3, §4
Retroviral infection was performed as described in Tontonoz et al. (1994) Cell 79:1147. Phoenix cells were transfected with either pBABE, pBABE-Sirt1, pSUPERretro (Oligoengine), pSUPERretro-Sirt1 RNAi (5′-GATGAAGTTGACCTCCTCA-3′, SEQ ID NO:24) or pSUPER-NCoR RNAi (5′-GCTGCATCCAAGGGCCATG-3′, SEQ ID NO:25) using Lipofectamine (Invitrogen). After 48 h of transfection, the medium containing retroviruses was collected, filtered, treated by polybrene (1 μg ml^−1) and transferred to 3T3-L1 target cells. Infected cells were selected with puromycin (2.5 μg ml^−1) for 7 days.

3T3-L1 fibroblasts [7] = experiment: Intracellular triglyceride levels in transformed 3T3-L1; type: cell-based, mouse; settings: day 7, Folch extraction, six wells per condition
Protocol: Fibroblast intracellular trigylceride (“TG”) levels should decrease upon inhibition of fibroblast differentiation resulting from overexpression of SIRT1. Consistent with Examples 4 and 5, it should be possible to measure in a quantitative manner the amount of intracellular triglycerides that can be observed by Oil Red O staining. To do so, 3T3-L1 fibroblasts were prepared as in Example 3 and transformed as in Examples 4 and 5 with either pBABE control vector (“pBABE control fibroblasts”), pBABE-mSIRT1 cDNA (“mSIRT1 cDNA fibroblasts”), pSUPER control vector (“pSUPER control fibroblasts”), or pSUPER-mSIRT1 RNAi WT (SEQ ID NO: 24) (“mSIRT1 RNAi WT fibroblasts”).
At day 7, the cells were lysed in methanol and neutral lipids were extracted by the Folch method and resuspended in isopropanol. Triglyceride levels were measured by calorimetric methods using a commercial kit (Trig/GB #450032, Roche Diagnostics, Indianapolis, Ind.). Six wells per condition were analyzed.

3T3-L1 cells = experiment: Mitotic divisions after induction (BrdU incorporation) in 3T3-L1; type: cell-based, mouse
From the text: We evaluated whether the mammalian Sir2 orthologue, Sirt1, senses nutrient availability in WAT and mediates corresponding effects on fat accumulation. To probe whether Sirt1 may actually modulate adipogenesis, we used mouse 3T3-L1 fibroblasts as an in vitro model. Adipogenesis in these cells is promoted by the nuclear receptor PPAR-γ. Upon induction of adipogenesis by insulin, dexamethasone and isobutylmethylxanthine, we observed that Sirt1, protein levels increased and peaked at day 5 after hormonal stimulation. […] 3T3-L1 cells undergo one or two mitotic divisions after induction as a prelude to terminal differentiation.

[8] = system: C/EBPβ, C/EBPδ, C/EBPα, PPARγ, aP2; experiment: Adipogenesis transcription factor levels in 3T3-L1 (Western Blot, semi-quantitative RT-PCR); type: cell-based, mouse
Protocol: 3T3-L1 fibroblasts were transformed through standard techniques with either a pBABE control vector (“control fibroblasts”) or a vector comprising pBABE-mSIRT1 cDNA (“mSIRT1 cDNA fibroblasts”) in accordance with Example 4. Protein and total RNA was extracted from the differentiated cells. Western Blot analyses of levels of the PPARγ and C/EBPα transcription factors present in the protein extracts from the control and mSIRT1 cDNA fibroblasts were performed using antibodies and actin control as in Example 1.
Semi-quantitative RT-PCR analysis was also conducted to determine levels of the C/EBPβ, C/EBPδ, C/EBPα, PPARγ transcription factors and aP2 (PPARγ target gene) present in the protein and total RNA extracted from the control and mSIRT1 cDNA fibroblasts. In this analysis, GAPDH was used as an internal control for cDNA input in the PCR.
3T3-L1 fibroblasts were transformed through standard techniques with either a pSUPER control vector (“control fibroblasts”) or a vector comprising pSUPER-mSIRT1 RNAiWT ([…]) (“mSIRT1 RNAiWT fibroblasts”) in accordance with Example 5. Protein and total RNA was extracted from the differentiated cells. […]
Semi-quantitative RT-PCR analysis was also conducted to determine levels of the C/EBPβ, C/EBPδ, C/EBPα, PPARγ, and aP2 (PPARγ target gene) present in the protein and total RNA extracted from the control and mSIRT1RNAiWT fibroblasts. […]

## Oc1ccc(/C=C/c2cc(O)cc(O)c2)cc1 [resveratrol, 3,5,4′-trihydroxy-tans-stilbene]
3T3-L1 adipocytes [1]; Sirt1 knockdown cells
  release of FFA: but not in the Sirt1 knockdown cells
3T3-L1 adipocytes [1]; control cells
  release of FFA: stimulated
[2]
  release of FFA triggered by adrenalin: greatly stimulated
UCP1
  UCP1 expression: increases
3T3-L1 adipocytes [3]; cells in which Sirt1 levels were knocked down
  fat content after staining: no drug-mediated fat reduction
3T3-L1 adipocytes [3]; fully differentiated 3T3-L1 cells, 12 days after induction, 50 and 100 μM resveratrol
  fat content after staining: strong reduction in fat
3T3-L1 adipocytes [4]
  triglyceride content: reduced

## NC(=O)c1cccnc1 [nicotinamide]
[2]
  release of FFA triggered by adrenalin: reduced

## NCoR RNAi: pSUPER-NCoR RNAi virus, 5′-GCTGCATCCAAGGGCCATG-3′
3T3-L1 fibroblasts [5]; Sirt1-overexpressing 3T3-L1 fibroblasts infected with NCoR RNAi virus
  reduction of fat accretion by Sirt1 overexpression: largely prevented

## mSIRT1 RNAi WT: pSUPER vector with RNAi sequence 5′-GATGAAGTTGACCTCCTCA-3′ (SEQ ID NO: 24), interferes with SIRT1 expression
3T3-L1 fibroblasts [6]
  lipolysis level (fatty acid concentration): 0.727 mM
SIRT1; retroviral infection of 3T3-L1 cells
  change of Sirt1 gene expression: downregulation (sevenfold)
3T3-L1 fibroblasts [7]
  TG levels versus respective control: higher
3T3-L1 cells
  mitotic divisions after induction: occurred normally
[8]; Western Blot of extracts from differentiated cells
  PPARγ levels versus control fibroblasts: Higher levels of PPARγ
[8]; semi-quantitative RT-PCR, GAPDH internal control
  levels of C/EBPβ, C/EBPδ, C/EBPα, PPARγ and aP2: increased levels of all of the assayed transcription factors except C/EBPβ
3T3-L1 fibroblasts [5]; Oil red O staining after 7 days of differentiation or intracellular triglyceride content
  fat / triglyceride accumulation versus control vector: significant increase in triglyceride accumulation
3T3-L1 fibroblasts [5]; transformed 3T3-L1 fibroblasts
  differentiation by Oil Red O staining versus control fibroblasts: marked increase in differentiation

## mSIRT1 RNAiMUT: mutation of mSIRT1 RNAiWT, 5′-GATGAAGTCGACCTCCTCA-3′ (SEQ ID NO: 25) (expressed or natural sequence)
SIRT1
  SIRT1 expression level versus control fibroblasts: comparable with those of the control fibroblasts
SIRT1; listed as SIRT1 mRNAi-mut
  SIRT1 expression level versus control fibroblasts: no effect on SIRT1 expression
